The text below walks through data of ChEMBL document CHEMBL5634092, “Design, synthesis, and biological evaluation of novel HDAC/CD13 dual inhibitors for the treatment of cancer” (Eur J Med Chem, 2023).

The target in one series is T1, Histone deacetylase 8 (Homo sapiens, UniProt Q9BY41).
T1 sequence (Q9BY41 whole entry): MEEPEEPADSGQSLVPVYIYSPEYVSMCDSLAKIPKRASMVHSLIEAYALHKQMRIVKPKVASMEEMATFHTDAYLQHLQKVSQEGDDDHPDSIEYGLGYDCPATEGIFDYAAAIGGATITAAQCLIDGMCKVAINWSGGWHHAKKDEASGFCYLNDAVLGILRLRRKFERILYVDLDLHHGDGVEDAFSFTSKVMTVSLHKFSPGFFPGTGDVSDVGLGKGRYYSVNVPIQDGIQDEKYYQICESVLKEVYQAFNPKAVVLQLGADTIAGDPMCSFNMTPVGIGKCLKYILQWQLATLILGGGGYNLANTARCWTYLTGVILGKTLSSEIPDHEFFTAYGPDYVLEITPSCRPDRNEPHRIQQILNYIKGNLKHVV
The experiment in a line: Inhibition of human HDAC8 using Boc-Lys (tri-fluoroacetyl)-AMC as substrate incubated for 1 hr followed by substrate addition and further incubated for 2 hrs by fluorescence assay.

For series [1], the target named is Aminopeptidase N (Homo sapiens, UniProt P15144). The experiment in a line: Inhibition of human CD13 using L-leucine-p-nitroanilide as substrate incubated for 30 mins by microplate reader analysis.
A short description of series [2]: Stability of compound in artificial gastric juice at 0.4 mg/mL measured after 24 hrs by HPLC analysis. Particulars: simulated gi fluid. The format is ADME.
The next series addresses T2, Histone deacetylase 7 (Homo sapiens, UniProt Q8WUI4).
T2 sequence (Q8WUI4 whole entry): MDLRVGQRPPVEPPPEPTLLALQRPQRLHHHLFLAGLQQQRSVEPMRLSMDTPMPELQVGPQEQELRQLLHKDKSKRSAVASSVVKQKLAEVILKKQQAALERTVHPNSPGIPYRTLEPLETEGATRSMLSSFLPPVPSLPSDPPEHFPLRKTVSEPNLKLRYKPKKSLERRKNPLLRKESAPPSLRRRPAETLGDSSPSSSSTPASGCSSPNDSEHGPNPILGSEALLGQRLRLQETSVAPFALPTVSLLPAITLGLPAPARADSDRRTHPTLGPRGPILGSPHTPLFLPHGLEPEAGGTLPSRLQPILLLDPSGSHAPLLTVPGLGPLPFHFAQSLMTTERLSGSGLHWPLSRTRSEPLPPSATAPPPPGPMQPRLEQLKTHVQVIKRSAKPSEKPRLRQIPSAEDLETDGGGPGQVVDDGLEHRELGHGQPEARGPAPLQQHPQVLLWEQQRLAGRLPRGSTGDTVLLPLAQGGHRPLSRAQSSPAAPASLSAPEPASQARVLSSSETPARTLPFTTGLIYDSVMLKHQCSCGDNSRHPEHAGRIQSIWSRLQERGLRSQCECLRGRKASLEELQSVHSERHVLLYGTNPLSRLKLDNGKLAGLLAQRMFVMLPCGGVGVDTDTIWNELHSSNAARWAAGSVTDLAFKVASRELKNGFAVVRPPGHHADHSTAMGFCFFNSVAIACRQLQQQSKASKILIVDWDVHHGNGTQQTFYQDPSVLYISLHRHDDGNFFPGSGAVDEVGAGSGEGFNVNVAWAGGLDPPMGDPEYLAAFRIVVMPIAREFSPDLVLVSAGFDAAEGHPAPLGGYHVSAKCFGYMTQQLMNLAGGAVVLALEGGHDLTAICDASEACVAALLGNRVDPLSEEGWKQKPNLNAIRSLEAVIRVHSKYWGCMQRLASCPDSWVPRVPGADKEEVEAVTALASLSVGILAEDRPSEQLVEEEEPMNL
The experiment in a line: Inhibition of human HDAC7 using Boc-Lys (tri-fluoroacetyl)-AMC as substrate incubated for 1 hr followed by substrate addition and further incubated for 2 hrs by fluorescence assay.

Series [3] concerns the target T3, Aminopeptidase N (Sus scrofa, UniProt P15145).
T3 sequence (P15145 whole entry): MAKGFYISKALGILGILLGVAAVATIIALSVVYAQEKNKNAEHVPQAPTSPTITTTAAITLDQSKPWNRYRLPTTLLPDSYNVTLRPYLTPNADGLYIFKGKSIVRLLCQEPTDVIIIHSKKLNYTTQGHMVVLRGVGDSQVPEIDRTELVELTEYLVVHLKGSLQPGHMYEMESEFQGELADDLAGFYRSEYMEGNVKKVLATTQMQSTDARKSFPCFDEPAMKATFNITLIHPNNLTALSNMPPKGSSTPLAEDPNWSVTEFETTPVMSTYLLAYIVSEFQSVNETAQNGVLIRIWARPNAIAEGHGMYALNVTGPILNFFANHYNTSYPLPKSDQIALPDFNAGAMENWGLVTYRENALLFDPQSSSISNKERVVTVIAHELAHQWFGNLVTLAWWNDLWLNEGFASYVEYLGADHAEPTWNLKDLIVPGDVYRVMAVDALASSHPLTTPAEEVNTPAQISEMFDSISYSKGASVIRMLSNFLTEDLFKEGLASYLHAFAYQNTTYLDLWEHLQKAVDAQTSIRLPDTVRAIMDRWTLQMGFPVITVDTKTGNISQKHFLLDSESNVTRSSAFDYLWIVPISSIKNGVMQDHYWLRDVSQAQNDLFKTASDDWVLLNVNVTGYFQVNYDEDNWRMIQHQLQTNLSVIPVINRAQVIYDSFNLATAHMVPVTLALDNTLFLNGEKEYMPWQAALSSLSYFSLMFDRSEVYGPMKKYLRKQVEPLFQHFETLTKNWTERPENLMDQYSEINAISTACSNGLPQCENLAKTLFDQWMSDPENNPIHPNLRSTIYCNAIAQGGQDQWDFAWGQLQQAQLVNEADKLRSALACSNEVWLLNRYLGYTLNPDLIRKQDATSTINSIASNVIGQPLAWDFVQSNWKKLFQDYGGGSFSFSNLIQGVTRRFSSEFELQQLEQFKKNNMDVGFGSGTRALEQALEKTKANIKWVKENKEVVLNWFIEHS
The experiment in a line: Inhibition of porcine kidney CD13 using L-leucine-p-nitroanilide as substrate incubated for 30 mins by microplate reader analysis.

The next series has as its target T4, Histone deacetylase 11 (Homo sapiens, UniProt Q96DB2).
T4 sequence (Q96DB2 whole entry): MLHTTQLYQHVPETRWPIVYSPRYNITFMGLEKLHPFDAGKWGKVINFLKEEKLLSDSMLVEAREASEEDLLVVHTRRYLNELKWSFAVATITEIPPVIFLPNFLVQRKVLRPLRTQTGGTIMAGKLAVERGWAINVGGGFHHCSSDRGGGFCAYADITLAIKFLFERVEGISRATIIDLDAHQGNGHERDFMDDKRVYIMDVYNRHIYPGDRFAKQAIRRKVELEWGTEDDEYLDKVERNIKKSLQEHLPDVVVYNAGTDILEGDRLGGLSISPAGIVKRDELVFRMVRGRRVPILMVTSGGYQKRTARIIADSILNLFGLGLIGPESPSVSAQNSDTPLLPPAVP
The experiment in a line: Inhibition of human HDAC11 using Boc-Lys (tri-fluoroacetyl)-AMC as substrate incubated for 1 hr followed by substrate addition and further incubated for 2 hrs by fluorescence assay.

The next series has as its target Histone deacetylase 5 (Homo sapiens, UniProt Q9UQL6). The experiment in a line: Inhibition of human HDAC5 using Boc-Lys (tri-fluoroacetyl)-AMC as substrate incubated for 1 hr followed by substrate addition and further incubated for 2 hrs by fluorescence assay.

pIC50: −log10 of the molar value.

What is called pIC50 is the negative decadic logarithm of the IC50, by convention in mol/L. A higher pIC50 goes with a small IC50.

Chain of Aminopeptidase N (Homo sapiens, UniProt P15144) (P15144 whole entry): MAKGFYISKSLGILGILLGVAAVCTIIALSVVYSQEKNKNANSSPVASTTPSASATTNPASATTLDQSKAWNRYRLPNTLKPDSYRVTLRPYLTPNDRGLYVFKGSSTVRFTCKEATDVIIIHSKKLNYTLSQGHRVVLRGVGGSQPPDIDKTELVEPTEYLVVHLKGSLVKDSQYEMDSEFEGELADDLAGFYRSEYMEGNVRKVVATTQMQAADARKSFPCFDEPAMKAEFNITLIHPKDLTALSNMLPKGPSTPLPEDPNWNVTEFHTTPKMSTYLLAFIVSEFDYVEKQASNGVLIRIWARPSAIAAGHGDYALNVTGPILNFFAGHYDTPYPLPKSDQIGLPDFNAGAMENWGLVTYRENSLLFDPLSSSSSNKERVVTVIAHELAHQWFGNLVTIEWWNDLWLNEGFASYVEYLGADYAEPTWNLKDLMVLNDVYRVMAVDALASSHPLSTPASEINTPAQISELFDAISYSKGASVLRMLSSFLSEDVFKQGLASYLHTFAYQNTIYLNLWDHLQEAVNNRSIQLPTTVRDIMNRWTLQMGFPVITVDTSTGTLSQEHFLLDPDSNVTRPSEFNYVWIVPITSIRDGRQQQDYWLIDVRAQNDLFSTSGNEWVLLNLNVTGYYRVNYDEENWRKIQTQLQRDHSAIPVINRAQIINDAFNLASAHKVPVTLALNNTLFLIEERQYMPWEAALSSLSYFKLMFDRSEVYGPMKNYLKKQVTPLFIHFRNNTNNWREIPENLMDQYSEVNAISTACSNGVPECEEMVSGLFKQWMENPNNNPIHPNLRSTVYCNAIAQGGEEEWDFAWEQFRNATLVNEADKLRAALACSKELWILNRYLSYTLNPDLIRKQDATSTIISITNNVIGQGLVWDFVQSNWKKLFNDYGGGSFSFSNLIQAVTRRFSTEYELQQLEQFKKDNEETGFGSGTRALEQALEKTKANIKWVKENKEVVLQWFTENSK
Chain of Histone deacetylase 5 (Q9UQL6 whole entry): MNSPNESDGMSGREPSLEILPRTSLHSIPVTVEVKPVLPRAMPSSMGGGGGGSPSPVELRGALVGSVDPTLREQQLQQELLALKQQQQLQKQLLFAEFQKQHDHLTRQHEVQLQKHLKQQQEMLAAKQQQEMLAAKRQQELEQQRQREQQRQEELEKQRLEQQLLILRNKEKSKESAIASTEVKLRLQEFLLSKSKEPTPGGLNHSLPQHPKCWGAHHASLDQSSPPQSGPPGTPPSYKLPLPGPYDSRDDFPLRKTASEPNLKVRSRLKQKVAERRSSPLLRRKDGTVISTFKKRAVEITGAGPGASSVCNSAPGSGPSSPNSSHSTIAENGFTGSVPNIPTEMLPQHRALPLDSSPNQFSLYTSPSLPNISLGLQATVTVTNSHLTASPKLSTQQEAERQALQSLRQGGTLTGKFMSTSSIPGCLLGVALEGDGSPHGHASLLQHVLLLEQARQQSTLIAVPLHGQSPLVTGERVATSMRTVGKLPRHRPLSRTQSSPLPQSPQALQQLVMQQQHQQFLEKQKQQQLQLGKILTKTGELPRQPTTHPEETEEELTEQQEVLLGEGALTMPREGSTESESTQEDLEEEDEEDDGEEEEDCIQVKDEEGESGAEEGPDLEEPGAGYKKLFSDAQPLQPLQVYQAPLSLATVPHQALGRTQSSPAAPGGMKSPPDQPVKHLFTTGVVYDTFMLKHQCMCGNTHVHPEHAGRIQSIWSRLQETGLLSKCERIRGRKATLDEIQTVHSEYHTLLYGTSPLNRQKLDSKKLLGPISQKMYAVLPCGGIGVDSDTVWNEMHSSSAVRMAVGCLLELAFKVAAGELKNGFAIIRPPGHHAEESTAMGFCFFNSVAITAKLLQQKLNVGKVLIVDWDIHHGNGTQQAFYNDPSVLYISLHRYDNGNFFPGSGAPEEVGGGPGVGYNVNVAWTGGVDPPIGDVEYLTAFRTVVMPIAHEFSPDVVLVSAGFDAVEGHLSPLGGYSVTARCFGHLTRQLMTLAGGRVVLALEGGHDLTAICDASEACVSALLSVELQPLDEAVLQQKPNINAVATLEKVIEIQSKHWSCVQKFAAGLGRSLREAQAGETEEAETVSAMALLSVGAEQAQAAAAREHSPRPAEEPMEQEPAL

As to `CCCNNC(=O)c1ccc(CNC(=O)[C@H](CC(C)C)NC(=O)[C@@H](O)[C@H](N)Cc2ccccc2)cc1.Cl`, the pIC50 on Histone deacetylase 8 is 5.33; at Aminopeptidase N [1], 6.47; against Histone deacetylase 7, less than 5.00; against Aminopeptidase N [3] it was 6.28; against Histone deacetylase 11 it was 5.91; against Histone deacetylase 5 it was less than 5.00. Further, in series [2], the Stability entry is recorded as “Stable”.
